Assay results: PubChem BioAssay AID272 (DTP/NCI, 2004)
Records with an inconclusive call do not appear.

Tested on: Lewis lung carcinoma i.m., BDF1 mice, T/C %
Experiment: NCI In Vivo Anticancer Drug Screen. Data for tumor model Lewis Lung Carcinoma (intramuscular) in B6D2F1 (BDF1) mice
Conditions: schedule: Q01DX011 (ip)
Outline: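 Mice carrying transplantable tumours received test compound. Survival or tumour size was recorded and expressed as the treated-group value (T) divided by the vehicle-treated control-group value (C).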

[1] = endpoint: mean tumor weight (est.), dose: 50.0 mg/kg/injection, vehicle: saline with Tween-80, higher = larger tumour
[2] = endpoint: median survival time, dose: 50.0 mg/kg/injection, vehicle: saline with Tween-80, higher = longer survival

Structure (SMILES)	T/C [1]	T/C (endpoint: mean tumor weight (est.), dose: 100.0 mg/kg/injection, vehicle: saline with Tween-80, higher = larger tumour)	T/C (endpoint: mean tumor weight (est.), dose: 200.0 mg/kg/injection, vehicle: saline with Tween-80, higher = larger tumour)	T/C (endpoint: mean tumor weight (est.), dose: 400.0 mg/kg/injection, vehicle: saline with Tween-80, higher = larger tumour)	T/C [2]	T/C (endpoint: median survival time, dose: 100.0 mg/kg/injection, vehicle: saline with Tween-80, higher = longer survival)	T/C (endpoint: median survival time, dose: 200.0 mg/kg/injection, vehicle: saline with Tween-80, higher = longer survival)	T/C (endpoint: median survival time, dose: 400.0 mg/kg/injection, vehicle: saline with Tween-80, higher = longer survival)	T/C (endpoint: mean tumor weight (est.), dose: 12.5 mg/kg/injection, vehicle: saline with Tween-80, higher = larger tumour)	T/C (endpoint: mean tumor weight (est.), dose: 25.0 mg/kg/injection, vehicle: saline with Tween-80, higher = larger tumour)	T/C (endpoint: median survival time, dose: 25.0 mg/kg/injection, vehicle: saline with Tween-80, higher = longer survival)	T/C (endpoint: mean tumor weight, dose: 12.5 mg/kg/injection, vehicle: Klucel (hydroxypropylcellulose) (HPC), higher = larger tumour)	T/C (endpoint: mean tumor weight, dose: 25.0 mg/kg/injection, vehicle: Klucel (hydroxypropylcellulose) (HPC), higher = larger tumour)	T/C (endpoint: median survival time, dose: 12.5 mg/kg/injection, vehicle: Klucel (hydroxypropylcellulose) (HPC), higher = longer survival)
CCOC(=O)N1c2ccccc2C=CC1C#N (stereo unspecified)	67 % of control	91 % of control	72 % of control	59 % of control	94 % of control	90 % of control	96 % of control	88 % of control	–	–	–	–	–	–
CCCCC/C(C)=N\Nc1ccccn1	80 % of control	–	–	–	98 % of control	–	–	–	91 % of control	88 % of control	98 % of control	–	–	–
CS(=O)(=O)OCCCCOS(C)(=O)=O	–	–	–	–	–	–	–	–	–	–	–	88 % of control	109 % of control	89 % of control
